Laboratory results: patent US9066905B2, “Synthetic peptides and methods of use for autoimmune disease therapies” (President and Fellows of Harvard College, priority 1998, dated 2015)
Read-outs that look alike come from different tables or passages of the source. Residues, ends and D or L forms follow the SMILES beside them.

Legend:
[1] = biological target: HLA-DR1 (DRB1*0101) molecules (Homo sapiens, UniProt P01903+P01911, A100R/D57E/F55L/F60I/F76Y/I96L/L162R/M171V/P40L/Q125E/R42F/V115G/Y59C); test: Competitive binding assay with recombinant water-soluble HLA-DR1
[2] = biological target: HLA-DR4 (DRB1*0401) molecules (Homo sapiens, UniProt P01903+P01911, A100K/A169T/F76Y/I96L/K127E/L162R/M171V/N62H/P40V/Q125Y/R42H/S133A/S149N/S66Y/V115G/V209L/W38E); test: Competitive binding assay with recombinant water-soluble HLA-DR4
[3] = Affinity for HLA-DR1 (DRB1*0101) molecules determined by competition with biotinylated competitor HA 306-318, biotinylated competitor HA306-318
[4] = Affinity for HLA-DR4 (DRB1*0401) molecules determined by competition with biotinylated competitor HA 306-318, biotinylated competitor HA306-318
[5] = biotinylated competitor YEAK, read-out: Affinity for HLA-DR4 (DRB1*0401) molecules determined by competition with biotinylated competitor YEAK
[6] = biotinylated competitor YEAK, read-out: Affinity for HLA-DR1 (DRB1*0101) molecules determined by competition with biotinylated competitor YEAK

Structure (SMILES) | IC50 [1, 3] [µM] | IC50 [2, 4] [µM] | IC50 [2, 5] [µM] | IC50 [1, 6] [µM]
C[C@H](NC(=O)[C@H](C)NC(=O)[C@H](C)NC(=O)[C@H](C)NC(=O)[C@H](CCCCN)NC(=O)[C@H](C)NC(=O)[C@H](C)NC(=O)[C@H](C)NC(=O)[C@H](C)NC(=O)[C@H](C)NC(=O)[C@H](C)NC(=O)[C@H](Cc1ccc(O)cc1)NC(=O)[C@H](CCCCN)NC(=O)[C@H](C)NC(=O)[C@@H](N)CCC(=O)O)C(=O)O [compound 18] (H-EAKYAAAAAAKAAAA-OH) | 33 | 4.4 | 3 | –
C[C@H](N)C(=O)N[C@@H](CCCCN)C(=O)N[C@@H](Cc1ccc(O)cc1)C(=O)N[C@@H](C)C(=O)N[C@@H](CCC(=O)O)C(=O)N[C@@H](C)C(=O)N[C@@H](C)C(=O)N[C@@H](C)C(=O)N[C@@H](C)C(=O)N[C@@H](C)C(=O)N[C@@H](C)C(=O)N[C@@H](C)C(=O)N[C@@H](C)C(=O)N[C@@H](C)C(=O)N[C@@H](C)C(=O)O [compound 36] | – | 3 | – | –
CC(C)C[C@H](NC(=O)[C@H](CCCCN)NC(=O)[C@H](CC(C)C)NC(=O)[C@@H](NC(=O)[C@H](CC(N)=O)NC(=O)[C@H](CCC(N)=O)NC(=O)[C@H](CCCCN)NC(=O)[C@@H](NC(=O)[C@H](Cc1ccc(O)cc1)NC(=O)[C@H](CCCCN)NC(=O)[C@@H]1CCCN1C(=O)[C@H](C)N)C(C)C)[C@@H](C)O)C(=O)N[C@@H](C)C(=O)N[C@H](C(=O)N[C@@H](C)C(=O)O)[C@@H](C)O [compound 4] | 13 | 26 | 8.2 | 3.3
C[C@H](N)C(=O)N[C@@H](CCCCN)C(=O)N[C@@H](CCCCN)C(=O)N[C@@H](Cc1ccc(O)cc1)C(=O)N[C@@H](CCC(=O)O)C(=O)N[C@@H](C)C(=O)N[C@@H](C)C(=O)N[C@@H](C)C(=O)N[C@@H](C)C(=O)N[C@@H](C)C(=O)N[C@@H](C)C(=O)N[C@@H](C)C(=O)N[C@@H](C)C(=O)N[C@@H](C)C(=O)N[C@@H](C)C(=O)O [compound 21] | – | 2.2 | – | –
C[C@H](N)C(=O)N[C@@H](C)C(=O)N[C@@H](CCCCN)C(=O)N[C@@H](Cc1ccc(O)cc1)C(=O)N[C@@H](CCC(=O)O)C(=O)N[C@@H](C)C(=O)N[C@@H](C)C(=O)N[C@@H](C)C(=O)N[C@@H](C)C(=O)N[C@@H](C)C(=O)N[C@@H](CCCCN)C(=O)N[C@@H](C)C(=O)N[C@@H](C)C(=O)N[C@@H](C)C(=O)N[C@@H](C)C(=O)O [compound 14] (H-AAKYEAAAAAKAAAA-OH) | – | 4 | – | –
C[C@H](N)C(=O)N[C@@H](C)C(=O)N[C@@H](CCC(=O)O)C(=O)N[C@@H](Cc1ccc(O)cc1)C(=O)N[C@@H](CCCCN)C(=O)N[C@@H](C)C(=O)N[C@@H](C)C(=O)N[C@@H](C)C(=O)N[C@@H](C)C(=O)N[C@@H](C)C(=O)N[C@@H](C)C(=O)N[C@@H](C)C(=O)N[C@@H](C)C(=O)N[C@@H](C)C(=O)N[C@@H](C)C(=O)O [compound 26] | – | 1.8 | – | –
C[C@H](N)C(=O)N[C@@H](Cc1ccc(O)cc1)C(=O)N[C@@H](CCCCN)C(=O)N[C@@H](C)C(=O)N[C@@H](CCC(=O)O)C(=O)N[C@@H](C)C(=O)N[C@@H](C)C(=O)N[C@@H](C)C(=O)N[C@@H](C)C(=O)N[C@@H](C)C(=O)N[C@@H](C)C(=O)N[C@@H](C)C(=O)N[C@@H](C)C(=O)N[C@@H](C)C(=O)N[C@@H](C)C(=O)O [compound 35] | – | 1.3 | – | –
C[C@H](N)C(=O)N[C@@H](CCC(=O)O)C(=O)N[C@@H](Cc1ccc(O)cc1)C(=O)N[C@@H](C)C(=O)N[C@@H](CCCCN)C(=O)N[C@@H](C)C(=O)N[C@@H](C)C(=O)N[C@@H](C)C(=O)N[C@@H](C)C(=O)N[C@@H](C)C(=O)N[C@@H](C)C(=O)N[C@@H](C)C(=O)N[C@@H](C)C(=O)N[C@@H](C)C(=O)N[C@@H](C)C(=O)O [compound 32] | – | 3 | – | –
C[C@H](NC(=O)[C@H](C)NC(=O)[C@H](C)NC(=O)[C@H](C)NC(=O)[C@H](CCCCN)NC(=O)[C@H](C)NC(=O)[C@H](C)NC(=O)[C@H](C)NC(=O)[C@H](C)NC(=O)[C@H](C)NC(=O)[C@H](C)NC(=O)[C@H](Cc1ccc(O)cc1)NC(=O)[C@H](CCCCN)NC(=O)[C@H](CCCCN)NC(=O)[C@@H](N)CCC(=O)O)C(=O)O [compound 17] (H-EKKYAAAAAAKAAAA-OH) | – | 1.8 | – | –
C[C@H](N)C(=O)N[C@@H](C)C(=O)N[C@@H](CCC(=O)O)C(=O)N[C@@H](Cc1ccc(O)cc1)C(=O)N[C@@H](C)C(=O)N[C@@H](C)C(=O)N[C@@H](C)C(=O)N[C@@H](C)C(=O)N[C@@H](C)C(=O)N[C@@H](C)C(=O)N[C@@H](CCCCN)C(=O)N[C@@H](C)C(=O)N[C@@H](C)C(=O)N[C@@H](C)C(=O)N[C@@H](C)C(=O)O [compound 12] | 47 | 3.2 | – | –
C[C@H](NC(=O)[C@H](C)NC(=O)[C@H](C)NC(=O)[C@H](C)NC(=O)[C@H](CCCCN)NC(=O)[C@H](C)NC(=O)[C@H](C)NC(=O)[C@H](C)NC(=O)[C@H](C)NC(=O)[C@H](C)NC(=O)[C@H](C)NC(=O)[C@H](Cc1ccc(O)cc1)NC(=O)[C@H](C)NC(=O)[C@H](CCCCN)NC(=O)[C@@H](N)CCC(=O)O)C(=O)O [compound 13] (H-EKAYAAAAAAKAAAA-OH) | – | 3.3 | – | –
C[C@H](N)C(=O)N[C@@H](CCC(=O)O)C(=O)N[C@@H](CCCCN)C(=O)N[C@@H](C)C(=O)N[C@@H](Cc1ccc(O)cc1)C(=O)N[C@@H](C)C(=O)N[C@@H](C)C(=O)N[C@@H](C)C(=O)N[C@@H](C)C(=O)N[C@@H](C)C(=O)N[C@@H](C)C(=O)N[C@@H](C)C(=O)N[C@@H](C)C(=O)N[C@@H](C)C(=O)N[C@@H](C)C(=O)O [compound 33] | – | < 1 | – | –
C[C@H](N)C(=O)N[C@@H](C)C(=O)N[C@@H](C)C(=O)N[C@@H](Cc1ccc(O)cc1)C(=O)N[C@@H](C)C(=O)N[C@@H](C)C(=O)N[C@@H](C)C(=O)N[C@@H](C)C(=O)N[C@@H](C)C(=O)N[C@@H](C)C(=O)N[C@@H](CCCCN)C(=O)N[C@@H](C)C(=O)N[C@@H](C)C(=O)N[C@@H](C)C(=O)N[C@@H](C)C(=O)O [compound 5] (H-AAAYAAAAAAKAAAA-OH) | – | 7 | – | –
C[C@H](N)C(=O)N[C@@H](CCCCN)C(=O)N[C@@H](CCC(=O)O)C(=O)N[C@@H](Cc1ccc(O)cc1)C(=O)N[C@@H](C)C(=O)N[C@@H](C)C(=O)N[C@@H](C)C(=O)N[C@@H](C)C(=O)N[C@@H](C)C(=O)N[C@@H](C)C(=O)N[C@@H](CCCCN)C(=O)N[C@@H](C)C(=O)N[C@@H](C)C(=O)N[C@@H](C)C(=O)N[C@@H](C)C(=O)O [compound 7] (H-AKEYAAAAAAKAAAA-OH) | 19 | 4.5 | – | –
C[C@H](N)C(=O)N[C@@H](C)C(=O)N[C@@H](CCCCN)C(=O)N[C@@H](Cc1ccc(O)cc1)C(=O)N[C@@H](C)C(=O)N[C@@H](CCC(=O)O)C(=O)N[C@@H](C)C(=O)N[C@@H](C)C(=O)N[C@@H](C)C(=O)N[C@@H](C)C(=O)N[C@@H](CCCCN)C(=O)N[C@@H](C)C(=O)N[C@@H](C)C(=O)N[C@@H](C)C(=O)N[C@@H](C)C(=O)O [compound 15] (H-AAKYAEAAAAKAAAA-OH) | 42 | 1.8 | < 1 | 16
C[C@H](N)C(=O)N[C@@H](CCC(=O)O)C(=O)N[C@@H](CCC(=O)O)C(=O)N[C@@H](Cc1ccc(O)cc1)C(=O)N[C@@H](C)C(=O)N[C@@H](C)C(=O)N[C@@H](C)C(=O)N[C@@H](C)C(=O)N[C@@H](C)C(=O)N[C@@H](C)C(=O)N[C@@H](CCCCN)C(=O)N[C@@H](C)C(=O)N[C@@H](C)C(=O)N[C@@H](C)C(=O)N[C@@H](C)C(=O)O [compound 11] | – | 2 | – | –
C[C@H](NC(=O)[C@H](C)NC(=O)[C@H](C)NC(=O)[C@H](C)NC(=O)[C@H](CCCCN)NC(=O)[C@H](C)NC(=O)[C@H](C)NC(=O)[C@H](C)NC(=O)[C@H](C)NC(=O)[C@H](C)NC(=O)[C@H](C)NC(=O)[C@H](Cc1ccc(O)cc1)NC(=O)[C@H](C)NC(=O)[C@H](C)NC(=O)[C@@H](N)CCC(=O)O)C(=O)O [compound 16] (H-EAAYAAAAAAKAAAA-OH) | – | 5 | – | –
